US20240325544A1, “CATIONIC LIPID FOR COVALENT MODIFICATION OF PEPTIDES” (PharmalN Corporation, priority 2023, published 2024)
Bridge positions count the residues as written; N and C are the ends. Square brackets hold non-standard residues; d marks the D form. Peptide text beside a SMILES is read from it. * marks the point of attachment. Stearoyl = CCCCCCCCCCCCCCCCCC(=O)*; Palmitoyl = CCCCCCCCCCCCCCCC(=O)*; Dab = NCC[C@H](N)C(=O)O; Hexanoyl = CCCCCC(=O)*

What was measured:
Sprague Dawley rats [1] = test: Clinically observable adverse effects of cationic alkyl moieties after subcutaneous bolus in rats (Table 1); type: in vivo, rat; settings: tested at 3.0, 5.0 or 10 μmol/kg
Experimental: Drug administration and observation: Each rat received a subcutaneous injection of a cationic alkyl modifier (SEQ ID NO: 1-22; listed in Table 1 below) in a buffer of sterile water adjusted to a pH between 4.5-5, with an initial bolus dose of 5.0 μmol/kg and an injection volume of 1.0 mL/kg. The bolus dose level was adjusted based on observations, and animals were monitored closely for lethargy, ataxia, swelling, or discoloration during the first 4 hours post-injection and hourly thereafter. As used herein, “ataxia” means a clinical sign observed as poor muscle control that causes clumsy voluntary movements. It may cause difficulty with mobility, coordination, and eye movements. As used herein, “lethargy” means a clinical sign observed as inability or unwillingness to resume normal activity characterized by exploring and alertness. Lethargic rats are easily observed by displaying little to no activity and/or unwillingness to explore around, half closed eyes, and hunched posture. As used herein, “swelling” means a clinical sign observed as the enlargement or engorgement of body parts with blood or fluid and is associated with visible redness (discoloration). If no swelling occurred, dose level was increased to 10 μmol/kg; if swelling was present, bolus dose level was decreased to 3.0 μmol/kg. A wash-out period of 1 week was allowed between bolus doses, and animals were humanely euthanized through CO2 asphyxiation after final observation.

Sprague Dawley rats [2] = test: Dose-range finding of cationic alkyl modified CNP, subcutaneous bolus in rats (Table 2)
Experimental: Animal care and treatment: Male Sprague Dawley rats aged 8 to 10 weeks (Charles River, Hollister, CA) were housed in groups of two (n=3/group) in disposable polypropylene cages with rodent cob bedding at the PharmaIN animal facility. Animals had ad libitum access to food (LabDiet Pico Rodent #5053; Animal Specialties, Woodburn, OR) and water. Temperature (68-74° F.) and humidity (30-60%) were maintained within a controlled range, and a 12-hour light/dark cycle was used. […] Animals were monitored closely during the first 4 hours following injection, then hourly throughout the rest of the day for any signs of swelling or discoloration (dilatory side effect), lethargy (side effect), ataxia (ataxia is used as a marker of toxicity). Rats were allowed a 1-week wash-out period between bolus doses. Following final observations, animals were humanely euthanized through CO2 asphyxiation.

cGMP = test: Plasma cGMP after SC bolus of natriuretic peptides in CD-1 mice (pharmacodynamics, Table 3); type: in vivo; settings: SC bolus 1.0 mg/kg (≤0.45 μmol/kg), baseline 10 +/−8 pmol/ml, n = 3-5
Experimental: The test articles were formulated or dissolved in sterile water for injection on the same day of administration. […] Blood samples were collected via retro-orbital bleed at 2- and 6-hours post-injection, with two bleedings per animal at two different timepoints. The samples were collected in K2EDTA tubes, processed by centrifugation (2000×g; 15 m 4 eC within 30 minutes after collection), and the resulting plasma samples were stored at −80° C. Biochemical analysis: The plasma concentration of the respective natriuretic peptide was analyzed using commercially available ELISA kits from Phoenix Pharmaceuticals (Burlingame, CA): ANP ELISA (cat #EKE-005-06), BNP ELISA (cat #EKE-011-03), and CNP ELISA (cat #EKE-012-03). […] Plasma cGMP was analyzed using a commercially available kit from Abcam (ab133052, Waltham, MA).

Row | SMILES | Lethargy* in n = 3 (Sprague Dawley rats [2]; up to 10 mg/kg) | Swelling and/or Discoloration in n = 3 (Sprague Dawley rats [2]; up to 10 mg/kg) | Lethargy* in n = 3 (Sprague Dawley rats [2]; value in parentheses) | Swelling and/or Discoloration in n = 3 (Sprague Dawley rats [2]; value in parentheses) | Ataxia** in n = 3 (Sprague Dawley rats [1]; ataxia is bolus dose limiting toxicity) | Swelling and/or Discoloration in n = 3 (Sprague Dawley rats [1]; dose at which sign was seen) | Lethargy* in n = 3 (Sprague Dawley rats [1]; lethargy is considered maximum tolerated bolus dose) | Ataxia** in n = 3 (Sprague Dawley rats [2]; up to 10 mg/kg) | Ataxia** in n = 3 (Sprague Dawley rats [2]; value in parentheses) | Plasma concentration of cGMP, 2 hr (cGMP; 2 hr) | Plasma concentration of cGMP, 6 hr (cGMP; 6 hr)
1 | CCCCCCCCCCCCCCCC(=O)NCCOCCOCC(=O)NCCOCCOCC(=O)NCCOCCOCC(=O)N[C@@H](CCCCN)C(=O)N[C@@H](CCCCN)C(=O)O [SEQ ID NO: 7, CH3(CH2)14(C═O)-Aeea-Aeea-Aeea-KK] |  |  |  |  | >5 µmol/kg | ≥3 µmol/kg | ≥5 µmol/kg |  |  |  | 
2 | CCCCCCCCCCCCCCCC(=O)N[C@@H](CCCCN)C(=O)N[C@@H](CCCCN)C(=O)NCC(=O)NCC(=O)NCC(=O)N[C@@H](CCCCN)C(=O)N[C@@H](CCCCN)C(=O)NCC(=O)N[C@@H](CC(C)C)C(=O)N[C@@H](CO)C(=O)N[C@@H](CCCCN)C(=O)NCC(=O)N[C@H]1CSSC[C@@H](C(=O)O)NC(=O)CNC(=O)[C@H](CC(C)C)NC(=O)CNC(=O)[C@H](CO)NC(=O)[C@H](CCC(N)=O)NC(=O)[C@H](CO)NC(=O)CNC(=O)[C@H]([C@@H](C)CC)NC(=O)[C@H](CCCNC(=N)N)NC(=O)[C@H](CC(=O)O)NC(=O)[C@H](CC(C)C)NC(=O)[C@H](CCCCN)NC(=O)[C@H](CC(C)C)NC(=O)CNC(=O)[C@H](Cc2ccccc2)NC1=O [SEQ ID NO: 24] (Palmitoyl-KKGGGKKGLSKGCFGLKLDRIGSQSGLGC-OH; disulfide 13-29; C-terminus assumed) | ≥5 mg/kg | ≥5 mg/kg | (1.6) μmol/kg | (1.6) μmol/kg |  |  |  | ≥5 mg/kg | (1.6) μmol/kg |  | 
3 | CCCCCC(=O)N[C@@H](CCCCN)C(=O)N[C@@H](CCCCN)C(=O)NCC(=O)NCC(=O)NCC(=O)N[C@@H](CCCNC(=N)N)C(=O)N[C@@H](CCCNC(=N)N)C(=O)NCC(=O)N[C@@H](CC(C)C)C(=O)N[C@@H](CO)C(=O)N[C@@H](CCCCN)C(=O)NCC(=O)N[C@H]1CSSC[C@@H](C(=O)O)NC(=O)CNC(=O)[C@H](CC(C)C)NC(=O)CNC(=O)[C@H](CO)NC(=O)[C@H](CCC(N)=O)NC(=O)[C@H](CO)NC(=O)CNC(=O)[C@H]([C@@H](C)CC)NC(=O)[C@H](CCCNC(=N)N)NC(=O)[C@H](CC(=O)O)NC(=O)[C@H](CC(C)C)NC(=O)[C@H](CCCCN)NC(=O)[C@H](CC(C)C)NC(=O)CNC(=O)[C@H](Cc2ccccc2)NC1=O [SEQ ID NO: 27] (Hexanoyl-KKGGGRRGLSKGCFGLKLDRIGSQSGLGC-OH; disulfide 13-29; C-terminus assumed) | ≥5 mg/kg | ≥5 mg/kg | (1.6) μmol/kg | (1.6) μmol/kg |  |  |  | ≥5 mg/kg | (1.6) μmol/kg |  | 
4 | CCCCCC(=O)N[C@@H](CCCCN)C(=O)N[C@@H](CCCCN)C(=O)NCC(=O)NCC(=O)NCC(=O)N[C@@H](CCN)C(=O)N[C@@H](CCN)C(=O)NCC(=O)N[C@@H](CC(C)C)C(=O)N[C@@H](CO)C(=O)N[C@@H](CCCCN)C(=O)NCC(=O)N[C@H]1CSSC[C@@H](C(=O)O)NC(=O)CNC(=O)[C@H](CC(C)C)NC(=O)CNC(=O)[C@H](CO)NC(=O)[C@H](CCC(N)=O)NC(=O)[C@H](CO)NC(=O)CNC(=O)[C@H]([C@@H](C)CC)NC(=O)[C@H](CCCNC(=N)N)NC(=O)[C@H](CC(=O)O)NC(=O)[C@H](CC(C)C)NC(=O)[C@H](CCCCN)NC(=O)[C@H](CC(C)C)NC(=O)CNC(=O)[C@H](Cc2ccccc2)NC1=O [SEQ ID NO: 28] (Hexanoyl-KKGGG[Dab][Dab]GLSKGCFGLKLDRIGSQSGLGC-OH; disulfide 13-29; C-terminus assumed) | ≥5 mg/kg | ≥5 mg/kg | (1.6) μmol/kg | (1.6) μmol/kg |  |  |  | ≥5 mg/kg | (1.6) μmol/kg |  | 
5 | CC[C@H](C)[C@@H]1NC(=O)[C@H](CCCNC(=N)N)NC(=O)[C@H](CC(=O)O)NC(=O)[C@H](CCSC)NC(=O)[C@H](CCCNC(=N)N)NC(=O)CNC(=O)CNC(=O)[C@H](Cc2ccccc2)NC(=O)[C@@H](NC(=O)[C@H](CO)NC(=O)[C@H](CO)NC(=O)[C@H](CCCNC(=N)N)NC(=O)[C@H](CCCNC(=N)N)NC(=O)[C@H](CC(C)C)NC(=O)[C@@H](N)CO)CSSC[C@@H](C(=O)N[C@@H](CC(N)=O)C(=O)N[C@@H](CO)C(=O)N[C@@H](Cc2ccccc2)C(=O)N[C@@H](CCCNC(=N)N)C(=O)N[C@@H](Cc2ccc(O)cc2)C(=O)O)NC(=O)CNC(=O)[C@H](CC(C)C)NC(=O)CNC(=O)[C@H](CO)NC(=O)[C@H](CCC(N)=O)NC(=O)[C@H](C)NC(=O)CNC1=O [SEQ ID NO: 44, reference compound] |  |  |  |  |  |  |  |  |  | 26.23 pmol/mL | 14.08 pmol/mL

Second part, led by results:

Row | Lethargy* in n = 3 (Sprague Dawley rats [2]; up to 10 mg/kg) | Swelling and/or Discoloration in n = 3 (Sprague Dawley rats [2]; up to 10 mg/kg) | Lethargy* in n = 3 (Sprague Dawley rats [2]; value in parentheses) | Swelling and/or Discoloration in n = 3 (Sprague Dawley rats [2]; value in parentheses) | SMILES | Ataxia** in n = 3 (Sprague Dawley rats [1]; ataxia is bolus dose limiting toxicity) | Swelling and/or Discoloration in n = 3 (Sprague Dawley rats [1]; dose at which sign was seen) | Lethargy* in n = 3 (Sprague Dawley rats [1]; lethargy is considered maximum tolerated bolus dose) | Ataxia** in n = 3 (Sprague Dawley rats [2]; up to 10 mg/kg) | Ataxia** in n = 3 (Sprague Dawley rats [2]; value in parentheses) | Plasma concentration of cGMP, 2 hr (cGMP; 2 hr) | Plasma concentration of cGMP, 6 hr (cGMP; 6 hr)
6 | ≥1 mg/kg | ≥1 mg/kg | (0.31) μmol/kg | (0.31) μmol/kg | CCCCCCCCCCCCCCCCCC(=O)N[C@@H](CCCCN)C(=O)N[C@@H](CCCCN)C(=O)N[C@@H](CCCCN)C(=O)N[C@@H](CCCCN)C(=O)NCC(=O)NCC(=O)NCC(=O)NCC(=O)N[C@@H](CC(C)C)C(=O)N[C@@H](CO)C(=O)N[C@@H](CCCCN)C(=O)NCC(=O)N[C@H]1CSSC[C@@H](C(=O)O)NC(=O)CNC(=O)[C@H](CC(C)C)NC(=O)CNC(=O)[C@H](CO)NC(=O)[C@H](CCC(N)=O)NC(=O)[C@H](CO)NC(=O)CNC(=O)[C@H]([C@@H](C)CC)NC(=O)[C@H](CCCNC(=N)N)NC(=O)[C@H](CC(=O)O)NC(=O)[C@H](CC(C)C)NC(=O)[C@H](CCCCN)NC(=O)[C@H](CC(C)C)NC(=O)CNC(=O)[C@H](Cc2ccccc2)NC1=O [SEQ ID NO: 23] (Stearoyl-KKKKGGGGLSKGCFGLKLDRIGSQSGLGC-OH; disulfide 13-29; C-terminus assumed) |  |  |  | ≥3 mg/kg | (0.94) μmol/kg |  | 
7 | ≥5 mg/kg | ≥5 mg/kg | (1.6) μmol/kg | (1.6) μmol/kg | CCCCCCCCCCCCCCCC(=O)NCC(=O)NCC(=O)NCC(=O)N[C@@H](CCCCN)C(=O)N[C@@H](CCCCN)C(=O)N[C@@H](CCCCN)C(=O)N[C@@H](CCCCN)C(=O)NCC(=O)N[C@@H](CC(C)C)C(=O)N[C@@H](CO)C(=O)N[C@@H](CCCCN)C(=O)NCC(=O)N[C@H]1CSSC[C@@H](C(=O)O)NC(=O)CNC(=O)[C@H](CC(C)C)NC(=O)CNC(=O)[C@H](CO)NC(=O)[C@H](CCC(N)=O)NC(=O)[C@H](CO)NC(=O)CNC(=O)[C@H]([C@@H](C)CC)NC(=O)[C@H](CCCNC(=N)N)NC(=O)[C@H](CC(=O)O)NC(=O)[C@H](CC(C)C)NC(=O)[C@H](CCCCN)NC(=O)[C@H](CC(C)C)NC(=O)CNC(=O)[C@H](Cc2ccccc2)NC1=O [SEQ ID NO: 25] (Palmitoyl-GGGKKKKGLSKGCFGLKLDRIGSQSGLGC-OH; disulfide 13-29; C-terminus assumed) |  |  |  | ≥5 mg/kg | (1.6) μmol/kg |  | 
8 | ≥5 mg/kg | ≥5 mg/kg | (1.6) μmol/kg | (1.6) μmol/kg | CCCCCCCCCCCCCCCC(=O)N[C@H](CCCCN)C(=O)N[C@H](CCCCN)C(=O)N[C@H](CCCCN)C(=O)N[C@H](CCCCN)C(=O)NCC(=O)NCC(=O)NCC(=O)NCC(=O)N[C@@H](CC(C)C)C(=O)N[C@@H](CO)C(=O)N[C@@H](CCCCN)C(=O)NCC(=O)N[C@H]1CSSC[C@@H](C(=O)O)NC(=O)CNC(=O)[C@H](CC(C)C)NC(=O)CNC(=O)[C@H](CO)NC(=O)[C@H](CCC(N)=O)NC(=O)[C@H](CO)NC(=O)CNC(=O)[C@H]([C@@H](C)CC)NC(=O)[C@H](CCCNC(=N)N)NC(=O)[C@H](CC(=O)O)NC(=O)[C@H](CC(C)C)NC(=O)[C@H](CCCCN)NC(=O)[C@H](CC(C)C)NC(=O)CNC(=O)[C@H](Cc2ccccc2)NC1=O [SEQ ID NO: 26] (Palmitoyl-[dK][dK][dK][dK]GGGGLSKGCFGLKLDRIGSQSGLGC-OH; disulfide 13-29; C-terminus assumed) |  |  |  | ≥5 mg/kg | (1.6) μmol/kg |  | 
